Assay [1] deals with IL-17A(FLAG-Tagged): IL-17RA(His-Tagged) (Homo sapiens, UniProt Q16552, K93Q). As to the kind of experiment: IL-17A(FLAG-Tagged): IL-17RA(His-Tagged) Binding Disruption Eu-HTRF Assay. As to conditions: IL-17A/IL-17RA binding disruption, simple average if tested more than once. In a few lines: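 IC50 comes from a one-site competition fit of the HTRF 665/620 nm ratio. Compound dilutions (2-fold, 22 points) were held 1 h rt with FLAG-tagged IL-17A dimer, then His-tagged IL-17RA plus Eu-cryptate anti-FLAG and D2 anti-His antibodies were added for 2 h rt.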
On the technique in general: In TR-FRET formats the signal depends on donor and acceptor labels being close together.

Assay [2] has as its system IL-17A-induced G-CSF production in human normal keratinocyte (NHK). As to the kind of experiment: NHK Assay: IL-17A-induced G-CSF production in human normal keratinocytes. It is filed as cell-based. The note with it: Homo sapiens, Keratinocyte, 24 h, adult normal human keratinocytes, IL-17A 5 ng/mL, simple average if tested more than once. In a few lines: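 Titrated compound plus recombinant human IL-17A (pre-incubated 1 h, rt) were applied to adult human keratinocytes at 5 ng/mL cytokine, 0.2% DMSO. Cultures ran 24 h at 37° C, and supernatant G-CSF was measured by HTRF to derive IC50.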

UniProt Q16552, sequence (Q16552 with tags, fused parts or gaps K93Q): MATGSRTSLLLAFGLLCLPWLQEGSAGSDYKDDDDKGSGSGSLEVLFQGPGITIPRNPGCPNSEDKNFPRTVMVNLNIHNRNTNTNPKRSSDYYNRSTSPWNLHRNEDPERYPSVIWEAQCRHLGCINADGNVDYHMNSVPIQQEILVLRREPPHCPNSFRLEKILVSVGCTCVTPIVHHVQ

What is called IC50 is the concentration that gives 50% inhibition. Low values mean greater potency, high ones weaker potency. In the case of `O=C(CCC(F)(F)F)N[C@@H](c1cnn2cc([C@@H](NC(=O)c3cnnn3CCOC(F)F)C3CCC(F)(F)CC3)nc2c1)C1CC1` [Example 34, N—((S)-(7-((R)-Cyclopropyl(4,4,4-trifluorobutanamido)methyl)imidazo[1,2-b]pyridazin-2-yl)(4,4-difluorocyclohexyl)methyl)-1-(2-(difluoromethoxy)ethyl)-1H-1,2,3-triazole-5-carboxamide], the IC50 in assay [1] is 180 nM; in assay [2], 64 nM.
For `O=C(CCC(F)(F)F)N[C@@H](c1cnn2cc([C@@H](NC(=O)c3cnn(CCOC(F)F)n3)C3CCC(F)(F)CC3)nc2c1)C1CC1` [Example 35, N—((S)-(7-((R)-Cyclopropyl(4,4,4-trifluorobutanamido)methyl)imidazo[1,2-b]pyridazin-2-yl)(4,4-difluorocyclohexyl)methyl)-2-(2-(difluoromethoxy)ethyl)-2H-1,2,3-triazole-4-carboxamide], the IC50 in assay [1] came out at 120 nM; in assay [2] it was 200 nM.
As for `O=C(CCC(F)(F)F)N[C@@H](c1cnn2cc([C@@H](NC(=O)c3cnn(CCOC(F)(F)F)c3)C3CCC(F)(F)CC3)nc2c1)C1CC1` [Example 36, N—((S)-(7-((R)-Cyclopropyl(4,4,4-trifluorobutanamido)methyl)imidazo[1,2-b]pyridazin-2-yl)(4,4-difluorocyclohexyl)methyl)-1-(2-(trifluoromethoxy)ethyl)-1H-pyrazole-4-carboxamide], the IC50 came out at 140 nM in assay [1] and 120 nM in assay [2].
Regarding `O=C(CCC(F)(F)F)N[C@@H](c1cnn2cc([C@@H](NC(=O)c3cnn(CCOC(F)F)c3)C3CCC(F)(F)CC3)nc2c1)C1CC1` [Example 37, N—((S)-(7-((R)-Cyclopropyl(4,4,4-trifluorobutanamido)methyl)imidazo[1,2-b]pyridazin-2-yl)(4,4-difluorocyclohexyl)methyl)-1-(2-(difluoromethoxy)ethyl)-1H-pyrazole-4-carboxamide], the figures for the IC50 in assay [1] and in assay [2] were 230 nM and 630 nM, respectively.
For `O=C(CCC(F)(F)F)N[C@@H](c1cnn2cc([C@@H](NC(=O)c3ncnn3CCC(F)(F)F)C3CCC(F)(F)CC3)nc2c1)C1CC1` [Example 38, N—((S)-(7-((R)-Cyclopropyl(4,4,4-trifluorobutanamido)methyl)imidazo[1,2-b]pyridazin-2-yl)(4,4-difluorocyclohexyl)methyl)-1-(3,3,3-trifluoropropyl)-1H-1,2,4-triazole-5-carboxamide] the same measures were 78 nM and 400 nM.
For `O=C(CCC(F)(F)F)N[C@@H](c1cnn2cc([C@@H](NC(=O)c3ncnn3CC3CC3)C3CCC(F)(F)CC3)nc2c1)C1CC1` [Example 39, N—((S)-(7-((R)-Cyclopropyl(4,4,4-trifluorobutanamido)methyl)imidazo[1,2-b]pyridazin-2-yl)(4,4-difluorocyclohexyl)methyl)-1-(cyclopropylmethyl)-1H-1,2,4-triazole-5-carboxamide] the same measures were 110 nM and 430 nM.
As for `Cc1ccccc1C(=O)N[C@H](c1cn2ncc([C@H](NC(=O)CCC(F)(F)F)C3CC3)cc2n1)C1CCC(F)(F)CC1` [Example 40, N—((S)-(7-((R)-Cyclopropyl(4,4,4-trifluorobutanamido)methyl)imidazo[1,2-b]pyridazine-2-yl)(4,4-difluorocyclohexyl)methyl)-2-methylbenzamide], the figures for the IC50 in assay [1] and in assay [2] were 410 nM and 1200 nM, respectively.
Regarding `CCc1ccccc1C(=O)N[C@H](c1cn2ncc([C@H](NC(=O)CCC(F)(F)F)C3CC3)cc2n1)C1CCC(F)(F)CC1` [Example 41, N—((S)-(7-((R)-Cyclopropyl(4,4,4-trifluorobutanamido)methyl)imidazo[1,2-b]pyridazin-2-yl)(4,4-difluorocyclohexyl)methyl)-2-ethylbenzamide], the concentration for half-maximal inhibition (IC50) stood at 350 nM in assay [1] and 2000 nM in assay [2].
For `O=C(CCC(F)(F)F)N[C@@H](c1cnn2cc([C@@H](NC(=O)c3ccccc3Cl)C3CCC(F)(F)CC3)nc2c1)C1CC1` [Example 42, 2-Chloro-N—((S)-(7-((R)-cyclopropyl(4,4,4-trifluorobutanamido)methyl)imidazo[1,2-b]pyridazin-2-yl)(4,4-difluorocyclohexyl)methyl)benzamide] the same measures were 410 nM and 2200 nM.
Take `O=C(CCC(F)(F)F)N[C@@H](c1cnn2cc([C@@H](NC(=O)C3CC34CC4)C3CCC(F)(F)CC3)nc2c1)C1CC1` (stereo partly drawn) [Example 44, N—((S)-(7-((R)-Cyclopropyl(4,4,4-trifluorobutanamido)methyl)imidazo[1,2-b]pyridazin-2-yl)(4,4-difluorocyclohexyl)methyl)spiro[2.2]pentane-1-carboxamide]: the concentration for half-maximal inhibition (IC50) came to 740 nM in assay [1] and 1400 nM in assay [2].
As for `O=C(CCC(F)(F)F)N[C@@H](c1cnn2cc([C@@H](NC(=O)C3CC34CCC4)C3CCC(F)(F)CC3)nc2c1)C1CC1` (stereo partly drawn) [Example 45, N—((S)-(7-((R)-Cyclopropyl(4,4,4-trifluorobutanamido)methyl)imidazo[1,2-b]pyridazin-2-yl)(4,4-difluorocyclohexyl)methyl)spiro[2.3]hexane-1-carboxamide], the figures for the 50% inhibitory concentration (IC50) in assay [1] and in assay [2] were 240 nM and 710 nM, respectively.
Take `O=C(CCC(F)(F)F)N[C@@H](c1cnn2cc([C@@H](NC(=O)c3ncnn3CCC(F)F)C3CCC(F)(F)CC3)nc2c1)C1CC1` [Example 46, N—((S)-(7-((R)-Cyclopropyl(4,4,4-trifluorobutanamido)methyl)imidazo[1,2-b]pyridazin-2-yl)(4,4-difluorocyclohexyl)methyl)-1-(3,3-difluoropropyl)-1H-1,2,4-triazole-5-carboxamide]: the results for the IC50 in assay [1] and in assay [2] were 130 nM and 640 nM, respectively.
For `O=C(CCC(F)(F)F)N[C@@H](c1cnn2cc([C@@H](NC(=O)c3ncnn3CCCF)C3CCC(F)(F)CC3)nc2c1)C1CC1` [Example 47, N—((S)-(7-((R)-Cyclopropyl(4,4,4-trifluorobutanamido)methyl)imidazo[1,2-b]pyridazin-2-yl)(4,4-difluorocyclohexyl)methyl)-1-(3-fluoropropyl)-1H-1,2,4-triazole-5-carboxamide], in that order: 180 nM and 640 nM.
Consider `O=C(CCC(F)(F)F)N[C@@H](c1cnn2cc([C@@H](NC(=O)c3cnnn3CC3CC3)C3CCC(F)(F)CC3)nc2c1)C1CC1` [Example 48, N—((S)-(7-((R)-Cyclopropyl(4,4,4-trifluorobutanamido)methyl)imidazo[1,2-b]pyridazin-2-yl)(4,4-difluorocyclohexyl)methyl)-1-(cyclopropylmethyl)-1H-1,2,3-triazole-5-carboxamide], for which the IC50 in assay [1] is 63 nM; in assay [2], 160 nM.
`O=C(CCC(F)(F)F)N[C@@H](c1cnn2cc([C@@H](NC(=O)c3cnnn3CCC(F)F)C3CCC(F)(F)CC3)nc2c1)C1CC1` [Example 49, N—((S)-(7-((R)-Cyclopropyl(4,4,4-trifluorobutanamido)methyl)imidazo[1,2-b]pyridazin-2-yl)(4,4-difluorocyclohexyl)methyl)-1-(3,3-difluoropropyl)-1H-1,2,3-triazole-5-carboxamide]: the half-maximal inhibitory concentration (IC50) in assay [1] came out at 95 nM; in assay [2], 110 nM.
Regarding `Cc1c(C(=O)N[C@H](c2cn3ncc([C@H](NC(=O)CCC(F)(F)F)C4CC4)cc3n2)C2CCC(F)(F)CC2)cnn1CC(F)F` [Example 50, N—((S)-(7-((R)-Cyclopropyl(4,4,4-trifluorobutanamido)methyl)imidazo[1,2-b]pyridazin-2-yl)(4,4-difluorocyclohexyl)methyl)-1-(2,2-difluoroethyl)-5-methyl-1H-pyrazole-4-carboxamide], the IC50 in assay [1] stood at 350 nM; in assay [2], 1000 nM.
On to `O=C(CCC(F)(F)F)N[C@@H](c1cnn2cc([C@@H](NC(=O)c3ncnn3CCOC(F)F)C3CCC(F)(F)CC3)nc2c1)C1CC1` [Example 55, N—((S)-(7-((R)-Cyclopropyl(4,4,4-trifluorobutanamido)methyl)imidazo[1,2-b]pyridazin-2-yl)(4,4-difluorocyclohexyl)methyl)-1-(2-(difluoromethoxy)ethyl)-1H-1,2,4-triazole-5-carboxamide], for which the results for the concentration for half-maximal inhibition (IC50) in assay [1] and in assay [2] were 100 nM and 210 nM, respectively.
For the compound `O=C(CCC(F)(F)F)N[C@@H](c1cnn2cc([C@@H](NC(=O)c3ncnn3CC(F)F)C3CCC(F)(F)CC3)nc2c1)C1CC1` [Example 56, N—((S)-(7-((R)-Cyclopropyl(4,4,4-trifluorobutanamido)methyl)imidazo[1,2-b]pyridazin-2-yl)(4,4-difluorocyclohexyl)methyl)-1-(2,2-difluoroethyl)-1H-1,2,4-triazole-5-carboxamide], the results for the IC50 in assay [1] and in assay [2] were 170 nM and 730 nM, respectively.
Regarding `O=C(CCC(F)(F)F)N[C@@H](c1cnn2cc([C@@H](NC(=O)c3ncnn3CCF)C3CCC(F)(F)CC3)nc2c1)C1CC1` [Example 57, N—((S)-(7-((R)-Cyclopropyl(4,4,4-trifluorobutanamido)methyl)imidazo[1,2-b]pyridazin-2-yl)(4,4-difluorocyclohexyl)methyl)-1-(2-fluoroethyl)-1H-1,2,4-triazole-5-carboxamide], the IC50 in assay [1] stood at 220 nM; in assay [2] it was 770 nM.
Regarding `CCn1nncc1C(=O)N[C@H](c1cn2ncc([C@H](NC(=O)CCC(F)(F)F)C3CC3)cc2n1)C1CCC(F)(F)CC1` [Example 58, N—((S)-(7-((R)-Cyclopropyl(4,4,4-trifluorobutanamido)methyl)imidazo[1,2-b]pyridazin-2-yl)(4,4-difluorocyclohexyl)methyl)-1-ethyl-1H-1,2,3-triazole-5-carboxamide], the concentration for half-maximal inhibition (IC50) in assay [1] turned out to be 81 nM; in assay [2], 270 nM.

For the origin of these results see patent US11702422B2, “Imidazopyridazines as modulators of IL-17” (Janssen Pharmaceutica NV, priority 2020, dated 2023).
